Assay results from patent publication US10131652B2, “Pyrimidinyloxy benzene derivatives as herbicides” (E. I. DU PONT DE NEMOURS AND COMPANY, priority 2014, dated 2018).
Like-named read-outs stand apart in the source and are kept apart here.

Legend:
Assay in all cases: Test E pre-/postemergence plant response
Type in all cases: in vivo
kochia (Kochia scoparia) = conditions: Bassia scoparia, scale 0 to 100, read-out: Plant response rating, Kochia; for pest or weed control at 16 g/ha: 16 g ai/ha; for pest or weed control at 31 g/ha: 31 g ai/ha; for pest or weed control at 62 g/ha: 62 g ai/ha; for pest or weed control at 125 g/ha: 125 g ai/ha
Outline: (§1)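 Visual scores on a 0–100 scale (100 = complete control) were assigned against untreated controls 7–21 days after treatment in a controlled environment. Compounds, formulated with solvent plus surfactant, were applied to pre-emergence silt-loam sowings or to 1- to 4-leaf plants (2–18 cm) in potting medium.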

[1] = test system: downy bromegrass (Bromus tectorum); conditions: scale 0 to 100, read-out: Plant response rating, Bromegrass, Downy; for pest or weed control at 16 g/ha: 16 g ai/ha; for pest or weed control at 31 g/ha: 31 g ai/ha; for pest or weed control at 62 g/ha: 62 g ai/ha; for pest or weed control at 125 g/ha: 125 g ai/ha
Outline: as §1

[2] = test system: spring wheat (Triticum aestivum); conditions: scale 0 to 100, read-out: Plant response rating, Wheat, Spring; for plant injury at 16 g/ha: 16 g ai/ha; for plant injury at 62 g/ha: 62 g ai/ha; for plant injury at 125 g/ha: 125 g ai/ha
Outline: as §1

[3] = test system: bluegrass (annual bluegrass, Poa annua); conditions: scale 0 to 100, read-out: Plant response rating, Bluegrass; for pest or weed control at 16 g/ha: 16 g ai/ha; for pest or weed control at 31 g/ha: 31 g ai/ha; for pest or weed control at 62 g/ha: 62 g ai/ha; for pest or weed control at 125 g/ha: 125 g ai/ha
Outline: as §1

[4] = test system: chamomile (scentless chamomile, Matricaria inodora); conditions: Tripleurospermum inodorum, post-emergence, Postemergence, scale 0 to 100, read-out: Plant response rating, Chamomile
Outline: as §1

[5] = test system: speedwell (bird's-eye speedwell, Veronica persica); conditions: scale 0 to 100, read-out: Plant response rating, Speedwell; for pest or weed control at 16 g/ha: 16 g ai/ha; for pest or weed control at 62 g/ha: 62 g ai/ha; for pest or weed control at 125 g/ha: 125 g ai/ha
Outline: as §1

[6] = test system: field poppy (Papaver rhoeas); conditions: scale 0 to 100, read-out: Plant response rating, Field Poppy; for pest or weed control at 16 g/ha: 16 g ai/ha; for pest or weed control at 31 g/ha: 31 g ai/ha; for pest or weed control at 62 g/ha: 62 g ai/ha; for pest or weed control at 125 g/ha: 125 g ai/ha
Outline: as §1

[7] = test system: winter wheat (Triticum aestivum); conditions: scale 0 to 100, read-out: Plant response rating, Wheat, Winter; for plant injury at 16 g/ha: 16 g ai/ha; for plant injury at 62 g/ha: 62 g ai/ha; for plant injury at 125 g/ha: 125 g ai/ha
Outline: as §1

[8] = test system: wild mustard (Sinapis arvensis); conditions: Brassica, scale 0 to 100, read-out: Plant response rating, Mustard, Wild; for pest or weed control at 16 g/ha: 16 g ai/ha; for pest or weed control at 31 g/ha: 31 g ai/ha; for pest or weed control at 62 g/ha: 62 g ai/ha; for pest or weed control at 125 g/ha: 125 g ai/ha
Outline: as §1

[9] = test system: green foxtail (Setaria viridis); conditions: scale 0 to 100, read-out: Plant response rating, Foxtail, Green; for pest or weed control at 16 g/ha: 16 g ai/ha; for pest or weed control at 31 g/ha: 31 g ai/ha; for pest or weed control at 62 g/ha: 62 g ai/ha; for pest or weed control at 125 g/ha: 125 g ai/ha
Outline: as §1

[10] = test system: oilseed rape (Brassica napus); conditions: scale 0 to 100, read-out: Plant response rating, Oilseed Rape; for plant injury at 16 g/ha: 16 g ai/ha; for plant injury at 31 g/ha: 31 g ai/ha; for plant injury at 62 g/ha: 62 g ai/ha; for plant injury at 125 g/ha: 125 g ai/ha
Outline: as §1

[11] = post-emergence, 31 g ai/ha, Postemergence

For `Fc1cccc(Oc2ncc(Cl)cn2)c1-c1cc(C(F)F)on1` [Compound 55, 5-chloro-2-[2-[5-(difluoromethyl)-3-isoxazolyl]-3-fluorophenoxy]pyrimidine], the pest or weed control at 16 g/ha (kochia (Kochia scoparia); post-emergence, Postemergence) was 65%, the pest or weed control at 31 g/ha (kochia (Kochia scoparia); post-emergence, Postemergence) was 70% and the pest or weed control at 62 g/ha (kochia (Kochia scoparia); post-emergence, Postemergence) was 85%. The pest or weed control at 125 g/ha (kochia (Kochia scoparia); post-emergence, Postemergence) was 85%, the pest or weed control at 16 g/ha (kochia (Kochia scoparia); pre-emergence, Preemergence) was 55% and the pest or weed control at 31 g/ha (kochia (Kochia scoparia); pre-emergence, Preemergence) was 100%. The pest or weed control at 62 g/ha (kochia (Kochia scoparia); pre-emergence, Preemergence) was 100%, the pest or weed control at 125 g/ha (kochia (Kochia scoparia); pre-emergence, Preemergence) was 100% and the pest or weed control at 16 g/ha ([1]; post-emergence, Postemergence) was 5%. For the same molecule, the pest or weed control at 31 g/ha ([1]; post-emergence, Postemergence) was 0%, the pest or weed control at 62 g/ha ([1]; post-emergence, Postemergence) was 10% and the pest or weed control at 125 g/ha ([1]; post-emergence, Postemergence) was 10%. For the same molecule, the pest or weed control at 16 g/ha ([1]; pre-emergence, Preemergence) was 20%, the pest or weed control at 31 g/ha ([1]; pre-emergence, Preemergence) was 20% and the pest or weed control at 62 g/ha ([1]; pre-emergence, Preemergence) was 55%. It also gave a pest or weed control at 125 g/ha ([1]; pre-emergence, Preemergence) of 55%, a plant injury at 16 g/ha ([2]; post-emergence, Postemergence) of 5% and a plant injury at 31 g/ha [2, 11] of 15%. It also gave a plant injury at 62 g/ha ([2]; post-emergence, Postemergence) of 25%, a plant injury at 125 g/ha ([2]; post-emergence, Postemergence) of 45% and a plant injury at 16 g/ha ([2]; pre-emergence, Preemergence) of 15%. It also gave a plant injury at 62 g/ha ([2]; pre-emergence, Preemergence) of 15%, a plant injury at 125 g/ha ([2]; pre-emergence, Preemergence) of 35% and a pest or weed control at 16 g/ha ([3]; post-emergence, Postemergence) of 0%. The pest or weed control at 31 g/ha ([3]; post-emergence, Postemergence) was 0%, the pest or weed control at 62 g/ha ([3]; post-emergence, Postemergence) was 15% and the pest or weed control at 125 g/ha ([3]; post-emergence, Postemergence) was 25%. For the same molecule, the pest or weed control at 16 g/ha ([3]; pre-emergence, Preemergence) was 0%, the pest or weed control at 31 g/ha ([3]; pre-emergence, Preemergence) was 10% and the pest or weed control at 62 g/ha ([3]; pre-emergence, Preemergence) was 10%. The pest or weed control at 125 g/ha ([3]; pre-emergence, Preemergence) was 100%, the pest or weed control at 16 g/ha ([4]; 16 g ai/ha) was 5% and the pest or weed control at 31 g/ha ([4]; 31 g ai/ha) was 5%. The pest or weed control at 62 g/ha ([4]; 62 g ai/ha) was 5%, the pest or weed control at 125 g/ha ([4]; 125 g ai/ha) was 5% and the pest or weed control at 16 g/ha ([5]; post-emergence, Postemergence) was 75%. It also gave a pest or weed control at 31 g/ha [5, 11] of 80%, a pest or weed control at 62 g/ha ([5]; post-emergence, Postemergence) of 100% and a pest or weed control at 125 g/ha ([5]; post-emergence, Postemergence) of 100%. For the same molecule, the pest or weed control at 16 g/ha ([5]; pre-emergence, Preemergence) was 100%, the pest or weed control at 62 g/ha ([5]; pre-emergence, Preemergence) was 100% and the pest or weed control at 125 g/ha ([5]; pre-emergence, Preemergence) was 100%. It also gave a pest or weed control at 16 g/ha ([6]; post-emergence, Postemergence) of 85%, a pest or weed control at 31 g/ha ([6]; post-emergence, Postemergence) of 90% and a pest or weed control at 62 g/ha ([6]; post-emergence, Postemergence) of 100%. For the same molecule, the pest or weed control at 125 g/ha ([6]; post-emergence, Postemergence) was 95%, the pest or weed control at 16 g/ha ([6]; pre-emergence, Preemergence) was 100% and the pest or weed control at 31 g/ha ([6]; pre-emergence, Preemergence) was 100%. For the same molecule, the pest or weed control at 62 g/ha ([6]; pre-emergence, Preemergence) was 100%, the pest or weed control at 125 g/ha ([6]; pre-emergence, Preemergence) was 100% and the plant injury at 16 g/ha ([7]; post-emergence, Postemergence) was 0%. It also gave a plant injury at 31 g/ha [7, 11] of 15%, a plant injury at 62 g/ha ([7]; post-emergence, Postemergence) of 30% and a plant injury at 125 g/ha ([7]; post-emergence, Postemergence) of 40%. For the same molecule, the plant injury at 16 g/ha ([7]; pre-emergence, Preemergence) was 5%, the plant injury at 62 g/ha ([7]; pre-emergence, Preemergence) was 10% and the plant injury at 125 g/ha ([7]; pre-emergence, Preemergence) was 20%. It also gave a pest or weed control at 16 g/ha ([8]; post-emergence, Postemergence) of 70%, a pest or weed control at 31 g/ha ([8]; post-emergence, Postemergence) of 85% and a pest or weed control at 62 g/ha ([8]; post-emergence, Postemergence) of 95%. It also gave a pest or weed control at 125 g/ha ([8]; post-emergence, Postemergence) of 95%, a pest or weed control at 16 g/ha ([8]; pre-emergence, Preemergence) of 80% and a pest or weed control at 31 g/ha ([8]; pre-emergence, Preemergence) of 100%. For the same molecule, the pest or weed control at 62 g/ha ([8]; pre-emergence, Preemergence) was 100%, the pest or weed control at 125 g/ha ([8]; pre-emergence, Preemergence) was 100% and the pest or weed control at 16 g/ha ([9]; post-emergence, Postemergence) was 30%. It also gave a pest or weed control at 31 g/ha ([9]; post-emergence, Postemergence) of 45%, a pest or weed control at 62 g/ha ([9]; post-emergence, Postemergence) of 50% and a pest or weed control at 125 g/ha ([9]; post-emergence, Postemergence) of 60%. The pest or weed control at 16 g/ha ([9]; pre-emergence, Preemergence) was 10%, the pest or weed control at 31 g/ha ([9]; pre-emergence, Preemergence) was 25% and the pest or weed control at 62 g/ha ([9]; pre-emergence, Preemergence) was 100%. The pest or weed control at 125 g/ha ([9]; pre-emergence, Preemergence) was 100%, the plant injury at 16 g/ha ([10]; post-emergence, Postemergence) was 75% and the plant injury at 31 g/ha ([10]; post-emergence, Postemergence) was 75%. For the same molecule, the plant injury at 62 g/ha ([10]; post-emergence, Postemergence) was 90%, the plant injury at 125 g/ha ([10]; post-emergence, Postemergence) was 95% and the plant injury at 16 g/ha ([10]; pre-emergence, Preemergence) was 20%. It also gave a plant injury at 31 g/ha ([10]; pre-emergence, Preemergence) of 100%, a plant injury at 62 g/ha ([10]; pre-emergence, Preemergence) of 100% and a plant injury at 125 g/ha ([10]; pre-emergence, Preemergence) of 100%.
